Test results published in patent US20260286322A1, “PROTEIN TYROSINE P[…] DOMAIN PEPTIDE DIMER FOR NERVOUS SYSTEM REPAIR” (NervGen Pharma Corp., priority 2023, published 2026).

Columns and labels:
[1] = test system: rat model of thoracic traumatic Spinal Cord Injury (SCI); test: Basso, Beattie and Bresnahan (BBB) open-field locomotor rating scale in SCI rats; assay type: in vivo
Text: The goal of this study is to test the efficacy of a novel peptide dimer (Intracellular Sigma blocking peptide (ISP) dimer according to the present disclosure on behavioral changes in a rat model of thoracic traumatic Spinal Cord Injury (SCI).
Adult, female Lewis rats (~160 g on arrival) from Envigo were used as the subjects receiving the treatment in the study. The rats were assigned unique identification numbers (PGI ID and tail marks) and housed in ventilated cages. All rats were examined, handled, and weighed prior to initiation of the study to assure adequate health and suitability. During the course of the study, 12/12 light/dark cycles were maintained. The room temperature was maintained between […] and 23° C. with a relative humidity maintained around 50%. Chow and water were provided adlibitum for the duration of the study. The rats were randomly assigned across treatment groups. Body weights were taken twice a week during the study.
Lyophilized Compound 8 was dissolved in saline and injected s.c. at a volume of 500 μl to animal once daily from day 1-day 49 post spinal cord injury.
The dose concentration was 0.8 mg/ml, corresponding to 400 μg/rat. After reconstitutions, the solution was aliquoted and kept at −20° C. until dosing.
12-13 rats were used in each of the following two groups: • 1. Control group: SCI+Saline • 2. Testing group: SCI+Compound 8 in Saline.
Spinal cord injury (SCI) was introduced to the rats by surgery using the Infinite Horizon (IH) Impactor (200 kDyn force) described by Scheff et al. 2003. The surgery was performed with aseptic procedures in a designated area under deep anesthesia. Rats were anesthetized with isoflurane (4% for induction, 2% for maintenance), and O2 (300 cm^3/min) mixture. Hair was removed from the surgical site with clippers and the skin wase scrubbed with an antiseptic detergent. To maintain body temperature the animals were placed upon a homoeothermic blanket system. The T8 Vertebra of the rat was located externally, and an incision was made exposing the vertebral column from T6-T11. A laminectomy was performed using a surgical microscope to expose the dorsal spinal cord at the thoracic (T8) vertebral level. The vertebral column was stabilized by clamping the nearest rostral and caudal vertebral processes and the injury was produced using the IH impactor device at a 200 kDyn force. After each lesion the IH graphs and impact data were reviewed and recorded, rats presenting an impact force more than 10% higher or lower than expected and/or any abnormality on the force/displacement impact graphs were excluded from the study. Additionally, animals scoring more than 1 points in the Basso, Beattie and Bresnahan (BBB) score scale at 1 days after SCI were excluded for the study as well.
Locomotion changes were assessed using an open-field locomotor test (the Ohio State BBB Locomotor Rating Scale developed by Basso, et al. 1995). During each test, rats were observed moving around an empty wading pool for 4 minutes. Movements of joints in the hind limbs, weight support, and coordination between limbs were scored according to the BBB scale. This scale tracks the progressive recovery of hind-limb function following thoracic SCI. The scale can be divided into three parts reflecting the stages of recovery. […] BBB was assessed on days 1, 4 and 7 post injury and then weekly until completion of the study.
The BBB score scale obtained at day 1 after SCI was used to keep injury consistency. […] At Day 1 after SCI, only animals scoring either 0 (no observable hind-limb movement) or 1 (slight movement of one or two hind-limbs joins) in the BBB scale were enrolled in the study and allocated into treatment groups. The treatments groups were balanced using the BBB score obtained at day 1 after SCI.
Data was analyzed by analysis of variance (ANOVA) followed by post-hoc comparisons where appropriate. An effect was considered significant if p<0.05. […]

SCI rats = test: BBB sub-score (toe clearance, paw position, trunk stability, tail position) in SCI rats; assay type: in vivo, rat
Protocol: Animals were prepared according to the methods described above in Example 3.
Lyophilized Compound 8 and Compound 4 were separately dissolved in saline and injected s.c. at a volume of 500 μl to animal once daily from day 1-day 49 post spinal cord injury.
The target dose concentration was 0.8 mg/ml. After reconstitutions, the solutions were aliquoted and kept at −20° C. until dosing.
12-13 rats were used in each of the following three groups: • 1) Control group: SCI+saline alone • 2) Testing group: SCI+Compound 4 in saline • 3) Testing group: SCI+Compound 8 in saline.
Spinal cord injury (SCI) was introduced to the animals and post-operative care was provided to the animals according to the methods described in Example 3.
The BBB sub-scores quantify the recovery of toe clearance, paw position, trunk stability and tail use independent of forelimb-hindlimb coordination. BBB sub-scores were calculated using the observations recorded in the BBB records sheets. During BBB testing, the predominant position of the hind paws (parallel vs rotated), toe clearance, trunk stability and tail position (up, down, middle) were evaluated for animals reaching a BBB score of 10 or higher. Animals scoring less than 10 in BBB scale were considered to have BBB sub-score of “0”.
As described above in Example 3, the upper points on the BBB scale (14-21) quantify fine motor movements associated with hind limb locomotor including toe clearance, predominant paw position, trunk stability, and tail position. These fine motor movements are only considered if animals display consistent coordination. A BBB sub-score was applied to quantify these improvements independent of coordination.
FIG. 8B depicts violin plots presenting distributions of the weekly average BBB sub-scores in the saline alone, Compound 4, and Compound 8 treatment cohorts of SCI rats. Each data point represents a weekly average BBB sub-score in the saline alone (control), Compound 4, and Compound 8 treatment cohorts as annotated on the X-axis. The numbers adjacent to the data points indicate the numbers of days post-SCI at which individual and treatment cohort weekly average BBB sub-scores were calculated. Statistical comparison of the treatment effects was performed using Friedman's test (repeated measures ANOVA for nonparametric values) with Dunn's correction for multiple comparisons and p-value of less than 0.05 defined as the criterion of statistical significance.

[2] = week 7 post-SCI, 13 rats in group

TAT-Cys-rodent PTPRS wedge domain homodimer [Compound 8]
locomotor performance measured with weekly average BBB scores vs saline alone ([1]; RM ANOVA, Tukey, p<0.0001 for each compound): significant improvement
improving the BBB scores, compared with Compound 4 ([1]; RM ANOVA, Tukey, p=0.0017): more efficacious
recovery of movements of joints in the hind limbs, weight support, and coordination between limbs ([1]; SCI rats, vs saline): promotes the recovery
share of rats achieving BBB scores of 10 or above ([1]; after 70 days post SCI, group (3)): More than half
number of rats having BBB scores of 6 to 7 ([1]; day 7 post-SCI, 13 rats in group, 400 μg/rat s.c. once daily): 6 rats
percentage of rats that achieved a BBB score of 11 ([1]; day 77 post-SCI): more than 20%
percentage of rats that achieved a BBB score of 11 ([1]; day 84 post-SCI): about 50%
maximum BBB score in the cohort ([1]; end of study): 11
number of rats with a BBB score of 10 [1, 2]: 6 rats
number of rats with a BBB score of 11 [1, 2]: 2 rats
rats with BBB scores of about 10 or 11 ([1]; week 12 post-SCI): 8 out of 13
sustained trend of continued functional improvement in BBB sub-score (SCI rats; FIG. 8A): apparent
effect on weekly average BBB sub-score vs saline alone (SCI rats; Friedman's test, Dunn's correction, p=0.0008 Compound 8, p>0.9999 Compound 4): statistically significant effect
effect on weekly average BBB sub-score vs Compound 4 (SCI rats; Friedman's test, Dunn's correction, p=0.0201): statistically significant effect
functional improvement (BBB sub-score achievers) after discontinuation of administration (SCI rats; after day 49): continued functional improvement
onset of functional improvement in BBB sub-score (SCI rats; day post-SCI, 0.8 mg/ml, 500 μl s.c. once daily day 1-49): 21 days
percentage of rats achieving BBB sub-score of 1 or better, compared with Compound 4 or saline alone groups (SCI rats; each time point post-SCI, e.g. day 28, 42, 63, 70, 77, 84): higher
